This experiment deals with T1, acetylcholinesterase (eeAChE) (Electrophorus electricus, UniProt O42275).
T1 construct: gene ache
In words: Ellman assay, single concentration ([…]). In kind it is biochemical. Background: In Ellman's method for cholinesterases, released thiocholine reacts with DTNB.

T1 sequence (O42275 24-633): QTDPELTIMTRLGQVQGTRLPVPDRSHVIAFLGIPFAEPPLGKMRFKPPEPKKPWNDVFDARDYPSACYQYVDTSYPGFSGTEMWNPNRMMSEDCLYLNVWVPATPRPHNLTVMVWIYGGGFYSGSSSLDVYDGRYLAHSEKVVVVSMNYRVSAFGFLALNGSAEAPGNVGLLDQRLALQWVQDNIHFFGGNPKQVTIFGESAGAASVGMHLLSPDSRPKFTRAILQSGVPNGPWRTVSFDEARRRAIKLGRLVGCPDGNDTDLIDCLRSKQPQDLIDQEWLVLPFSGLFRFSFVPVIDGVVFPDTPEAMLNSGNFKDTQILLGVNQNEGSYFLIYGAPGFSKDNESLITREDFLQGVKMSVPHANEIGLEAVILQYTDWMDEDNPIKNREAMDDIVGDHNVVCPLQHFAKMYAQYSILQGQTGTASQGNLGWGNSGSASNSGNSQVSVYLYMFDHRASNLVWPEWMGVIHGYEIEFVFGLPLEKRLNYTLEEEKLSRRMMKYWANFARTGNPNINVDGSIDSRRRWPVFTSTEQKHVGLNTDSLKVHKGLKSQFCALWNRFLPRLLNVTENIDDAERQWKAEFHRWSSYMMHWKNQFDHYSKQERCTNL

Broadly, the inhibition is the change of the read-out against control, counted positive when it falls. The low end stands for a weak effect, the high end for a strong effect. Compound `Nc1ccnc2ccccc12` [compound 03, 4-aminoquinoline] showed an inhibition at 10 µM of 68.3 ± 1.83%.

The record behind these values is article PMC4941764, “Identification of 4-aminoquinoline core for the design of new cholinesterase inhibitors” (PeerJ, 2016).
